{
  "source": "patent US6770799B2",
  "about": "“Expression of recombinant human acetylcholinesterase in transgenic plants” (priority 2000, dated 2004)",
  "key": {"[1]": {"molecular_target": "T1, plant derived recombinant AChE (rAChE) (Homo sapiens, UniProt P22303)", "T1 construct": "We expressed the engineered AChE-E4 form, encoded by exons 2-4 of the human gene; made in house; host or cells: transgenic tomato (Lycopersicum esculentum cv. Micro-Tom), cleared leaf extracts", "assay": "Inhibition of plant-derived recombinant AChE (Ellman assay)", "format": "biochemical", "details": "for inhibition of plant derived rAChE: 1 mM acetylthiocholine"}, "[2]": {"molecular_target": "T2, human AChE derived from erythrocytes (Homo sapiens, UniProt P22303)", "T2 construct": "a commercially available preparation of AChE from human erythrocytes; purchased; host or cells: human erythrocytes", "T2 sequence (P22303 32-617 isoform P22303-2 limits assumed)": "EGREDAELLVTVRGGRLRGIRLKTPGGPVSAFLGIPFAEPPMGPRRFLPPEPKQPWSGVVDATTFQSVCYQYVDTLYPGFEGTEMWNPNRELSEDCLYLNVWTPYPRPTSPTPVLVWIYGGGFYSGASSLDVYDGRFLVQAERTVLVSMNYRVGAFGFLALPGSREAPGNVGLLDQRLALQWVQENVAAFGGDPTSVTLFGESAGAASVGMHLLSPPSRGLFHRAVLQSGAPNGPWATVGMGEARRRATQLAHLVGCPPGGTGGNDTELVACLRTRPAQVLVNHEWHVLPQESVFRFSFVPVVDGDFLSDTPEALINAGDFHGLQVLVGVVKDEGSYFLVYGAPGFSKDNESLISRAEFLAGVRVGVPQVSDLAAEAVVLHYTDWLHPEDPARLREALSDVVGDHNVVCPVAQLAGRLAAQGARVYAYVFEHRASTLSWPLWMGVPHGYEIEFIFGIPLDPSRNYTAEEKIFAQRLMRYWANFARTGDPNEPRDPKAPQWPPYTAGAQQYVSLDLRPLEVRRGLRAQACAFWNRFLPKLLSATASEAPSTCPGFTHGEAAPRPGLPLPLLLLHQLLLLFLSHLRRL", "assay": "Inhibition of AChE from human erythrocytes (Ellman assay)", "format": "biochemical"}, "[3]": {"assay": "Km determination of plant-derived hAChE (Ellman assay, Lineweaver-Burk analysis)", "format": "biochemical", "details": "acetylthiocholine 0.05-50 mM; four expressing lines", "method": "Scaled-down microtiter plate Ellman assays were performed, according to standard methods, which are well known in the art. […] At the end of the 30 minute incubation period, 100 μl of 1 mM 5-5′-dithio-bis(2-nitrobenzoate) (Ellman's reagent) and 2 mM acetylthiocholine in assay buffer was added. Hydrolysis was monitored by measuring optical density at 405 nm at 5 minute intervals for 30 minutes, using a microtiter plate spectrophotometer, plotted against time, and initial rates were calculated from the slope of the linear portion of the graph. Net hydrolysis rates were calculated by subtracting the rates measured in the presence of BW284c15 from those obtained in its absence. To determine the Km, the concentration of the acetylthiocholine substrate in the Ellman's reagent was varied in the range of 0.05-50 mM."}, "[4]": {"assay": "Heat and storage stability of AChE activity in crude leaf extracts", "format": "physicochemical", "procedure": "To evaluate the heat stability of the enzyme, plant extracts were incubated for 30 minutes at the indicated temperatures and then assayed as described above. Stability of the enzymatic activity was determined at 4 degrees C. and at 25 degrees C. by incubating plant extracts at the respective temperatures and assaying samples at the indicated time points.\nThe plant-derived hAChE in total soluble protein extracts retained 50% of its initial activity after incubation at 42 degrees for at least 30 minutes (FIG. 5A). Crude leaf extracts were incubated at the indicated temperatures for 30 minutes and then subjected to Ellman's AChE assay. […] The activity was very stable at 4 degrees C., with only 20% loss after 24 hours (FIG. 5B). Crude leaf extracts were incubated at 4 degrees C. or at 25 degrees C. for the indicated time periods and then assayed for AChE activity."}},
  "data": [
    {"molecule": "CC(C)NP(=O)(NC(C)C)OP(=O)(NC(C)C)NC(C)C", "note": "[Iso-OMPA, tetraisopropyl pyrophosphoramide]", "values": [
      {"measurement": "inhibition of plant-derived enzyme", "setting": "[1]; at 10 mM", "value": "only partial inhibition"},
      {"measurement": "effect on plant-derived enzyme", "setting": "[1]; up to 100 μM", "value": "no effect"},
      {"measurement": "inhibition of erythrocyte-derived enzyme", "setting": "[2]; at 10 mM", "value": "only partial inhibition"},
      {"measurement": "effect on erythrocyte-derived enzyme", "setting": "[2]; up to 100 μM", "value": "no effect"}
    ]},
    {"molecule": "O=S(=O)(F)Cc1ccccc1", "note": "[PMSF, phehylmethylsulfonyl fluoride]", "values": [
      {"measurement": "inhibition of plant derived rAChE", "setting": "[1]", "value": "can inhibit"}
    ]},
    {"molecule": "CN(C)C(=O)Oc1cccc([N+](C)(C)C)c1", "note": "[neostigmine]", "values": [
      {"measurement": "inhibition of plant derived rAChE", "setting": "[1]", "value": "can inhibit"}
    ]},
    {"molecule": "CCOP(=O)(OCC)Oc1ccc([N+](=O)[O-])cc1", "note": "[paraoxon, diethyl p-nitrophenyl phosphate]", "values": [
      {"measurement": "susceptibility of plant-derived E4 enzyme relative to equivalent recombinant enzyme from transgenic mice", "setting": "[1]", "value": "somewhat less susceptible"},
      {"measurement": "inhibition of plant derived rAChE", "setting": "[1]", "value": "can inhibit"}
    ]},
    {"molecule": "plant-derived hAChE (protein, UniProt P22303 32-614, looked up, plant-expressed) Acetylcholinesterase: EGREDAELLVTVRGGRLRGIRLKTPGGPVSAFLGIPFAEPPMGPRRFLPPEPKQPWSGVVDATTFQSVCYQYVDTLYPGFEGTEMWNPNRELSEDCLYLNVWTPYPRPTSPTPVLVWIYGGGFYSGASSLDVYDGRFLVQAERTVLVSMNYRVGAFGFLALPGSREAPGNVGLLDQRLALQWVQENVAAFGGDPTSVTLFGESAGAASVGMHLLSPPSRGLFHRAVLQSGAPNGPWATVGMGEARRRATQLAHLVGCPPGGTGGNDTELVACLRTRPAQVLVNHEWHVLPQESVFRFSFVPVVDGDFLSDTPEALINAGDFHGLQVLVGVVKDEGSYFLVYGAPGFSKDNESLISRAEFLAGVRVGVPQVSDLAAEAVVLHYTDWLHPEDPARLREALSDVVGDHNVVCPVAQLAGRLAAQGARVYAYVFEHRASTLSWPLWMGVPHGYEIEFIFGIPLDPSRNYTAEEKIFAQRLMRYWANFARTGDPNEPRDPKAPQWPPYTAGAQQYVSLDLRPLEVRRGLRAQACAFWNRFLPKLLSATDTLDEAERQWKAEFHRWSSYMVHWKNQFDHYSKQDRCSDL", "values": [
      {"measurement": "Km", "setting": "[3]", "value": "440 ± 100", "unit": "µM"},
      {"measurement": "loss of AChE activity", "setting": "[4]; 4 degrees C., after 24 hours", "value": 20, "unit": "%"},
      {"measurement": "initial activity retained", "setting": "[4]; 42 degrees, at least 30 minutes, total soluble protein extract", "value": 50, "unit": "%"},
      {"measurement": "residual AChE activity", "setting": "[4]; room temperature (~25 degrees C.), after 25 hours", "value": 20, "unit": "%"}
    ]}
  ]
}
